Read-outs that look alike come from different tables or passages of the source.
Experiments:
[1] = target: T1, human 5-HT1A receptor (Homo sapiens (Human), UniProt P08908); assay: Test 2: agonist activity for human 5-HT1A receptor ([35S]GTPγS binding); format: biochemical
Procedure: Test 2: Evaluation of Agonist Activity for Human 5-HT1A Receptor
CHO cell membrane fraction in which human 5-HT1A receptor was expressed as used in Test 1 was purchased. To a buffer containing guanosine diphosphate were added a test compound dissolved in DMSO, each receptor membrane sample diluted with buffer, and [^35S] Guanosine 5′-O-[gamma-thio]triphosphate (GTPγS). The mixture was incubated at room temperature for 60 minutes. Then, the mixture was added quickly on a glassfiber filter plate (Multiscreen FB, Millipore, Inc.), and vacuum-filtered. Radioactivity remaining on the […] was measured with a liquid scintillation counter. Agonist activity was calculated from the following formula.

[2] = Test 4: metabolic stability test in human hepatic microsome; format: in vitro ADME; conditions: 0.1 mg/mL microsome, 0.1 μmol/L compound, NADPH, 37° C., 30 minutes
Procedure: Test 4: Metabolic Stability Test in Human Hepatic Microsome
The stability of the present compound in human hepatic microsome metabolism was evaluated as mentioned below. Human hepatic microsome was obtained from Xenontech. Human hepatic microsome, NADPH, and each test compound were mixed in 25 mmol/L phosphate buffer solution (pH 7.4) to reach the following concentrations as shown below, and the mixture was incubated at 37° C. for 30 minutes. • Human hepatic microsome: 0.1 mg/mL • NAPDH: 3.2 mmol/L • Test compound: 0.1 μmol/L
The residual ratio of the test compound in each sample after 30 minutes was measured by LC-MS, and the metabolic stability in human hepatic microsome was calculated from the following formula. Metabolic stability in human hepatic microsome (mL/min/mg protein)=−LN(residual ratio)/30/0.1

[3] = target: human 5-HT2A receptor (Homo sapiens (Human), UniProt P28223); assay: Test 1: binding activity for human 5-HT2A receptor ([3H]Ketanserin); conditions: CHO cell membrane fraction
Procedure: (§1) Test 1: Evaluation of Binding Activity for Human 5-HT1A Receptor, Human 5-HT2A Receptor, and Human D2 Receptor
(§2) Binding affinity of the present compound for human 5-HT1A receptor, human 5-HT2A receptor, and human D2 receptor was measured by the following procedures.
(§3) Each mixture was incubated at room temperature for 60 minutes. Then, the mixture was added quickly on a glassfiber filter plate (Multiscreen FB, Millipore, Inc.) coated with 0.3% aqueous polyethylenimine, and vacuum-filtered. Radioactivity remaining on the filter was measured with a liquid scintillation counter (PerkinElmer, Inc.). Binding inhibition rate was calculated from the following formula.
(§4) Ki of each compound was calculated from the following formula. Binding inhibition constant (Ki)=IC50/(1+S/Kd) wherein S is concentration of ligand; Kd is a binding dissociation constant of ligand to membrane, which is calculated from a saturated binding experiment conducted with the same cell membrane. A small Ki value means strong binding ability to a receptor.

[4] = target: human D2 receptor (Homo sapiens (Human), UniProt P14416); assay: Test 1: binding activity for human D2 receptor ([3H]Spiperone); conditions: for Ki: CHO cell membrane fraction, [3H]Spiperone; for D2 Ki/5-HT1A Ki: ratio of D2 Ki to 5-HT1A Ki; for D2 Ki/5-HT2A Ki: ratio of D2 Ki to 5-HT2A Ki
Procedure: as §1, §2, §3, §4

[5] = target: T1, human 5-HT1A receptor; assay: Test 1: binding activity for human 5-HT1A receptor ([3H]8-OH-DPAT); conditions: CHO cell membrane fraction
Procedure: as §1, §2, §3
IC50 value was calculated by Hill analysis (Physiology, 1910, 40, 190-200). Ki of each compound was calculated from the following formula. Binding inhibition constant (Ki)=IC50/(1+S/Kd) wherein S is concentration of ligand; Kd is a binding dissociation constant of ligand to membrane, which is calculated from a saturated binding experiment conducted with the same cell membrane. A small Ki value means strong binding ability to a receptor.

[6] = target: hERG channel (Homo sapiens (Human), UniProt Q12809); assay: Test 6-1: inhibitory activity for hERG channel (auto patch clamp, Qpatch); format: cell-based; conditions: hERG-CHO cells, whole cell patch clamp, Qpatch, read-out: hERG inhibition IC50
Procedure: Test 6-1: Evaluation of Inhibitory Activity for hERG Channel
Inhibitory activity of the present compound for hERG channel was measured by whole cell patch clamp method with an auto patch clamp system using CHO cells in which hERG channel involved in human rapidly activating delayed rectifier potassium current (IKr) was forcibly expressed.
hERG-CHO cells purchased from ChanTest Cop. were cultured in a CO2 incubator at 37° C., and dissociated from a flask with trypsin shortly before the measurement of hERG current, to prepare a cell suspension.
Extracellular and intracellular fluid used in the measurement were prepared as follows.
Extracellular fluid: 2 mmol/L CaCl2, 1 mmol/L MgCl2, 10 mmol/L HEPES, 4 mmol/L KCl, 145 mmol/L NaCl, 10 mmol/L Glucose
Intracellular fluid: 5.4 mmol/L CaCl2, 1.8 mmol/L MgCl2, 10 mmol/L HEPES, 31 mmol/L KOH, 10 mmol/L EGTA, 120 mmol/L KCl, 4 mmol/L Na2-ATP
Test compound solution: Test compound was dissolved in DMSO to reach the concentration of 2 mmol/L or 20 mmol/L, in order to prepare a test compound solution. […] (Measurement of Current Value and Data Analysis)
The cell suspension, the extracellular fluid, the intracellular fluid, and the measurement plate were set in the auto patch clamp system, and hERG current was measured by whole cell patch clamp method. […] Each pulse interval was 15 seconds. The data analysis was carried out with Qpatch Assay Software (Biolin Scientific). The test was carried out by applying incrementally 4 concentrations of each test compound, and the average of the maximum peak tail currents which were obtained from the last 3 stimulations in each concentration was determined as the evaluated data. Based on the current inhibition rate for a pre-applied current at each concentration of each test compound, IC50 value was calculated by Hill equation with the software.

[7] = target: P-gp (MDR1) (Homo sapiens (Human), UniProt P08183); assay: Test 9: P-gp substrate property (NFR, MDCKII and MDR1-MDCKII cells); format: in vitro ADME; conditions: ratio of Papp B-A/Papp A-B in MDR1-MDCKII cells to that in MDCKII cells
Procedure: Evaluation test for binding was carried out as follows with the CHO cell membrane fraction in which human target receptor was expressed. […] Each mixture was incubated at room temperature, added quickly on a glassfiber filter plate (Multiscreen FB, Millipore, Inc.), and vacuum-filtered. Radioactivity remaining on the filter was measured with a liquid scintillation counter (PerkinElmer, Inc.). Binding inhibition rate was calculated from the following formula.
NFR (Net Flux Ratio), which is an index of P-gp substrate property, can be calculated as follows. MDCKII (Madin-Darby canine kidney strain II) cells and MDR1-MDCKII cells in which MDR1 (multidrug resistance protein 1) was overexpressed were used to measure an apparent permeability coefficient (Papp A-B) from lumen (A) to basement membrane (B) and an apparent permeability coefficient (Papp B-A) from basement membrane (B) to lumen (A) of both MDCKII cells and MDR1-MDCKII cells. NFR (Net Flux Ratio) was calculated from the ratio between Ratio (Papp B-A/Papp A-B) of an apparent permeability coefficient of MDR1-MDCKII cells and Ratio of an apparent permeability coefficient of MDCKII cells.

[8] = agonist activity in the presence of 10 μM compound, relative to 100 μmol/L 5-HT

T1 sequence (P08908 whole entry): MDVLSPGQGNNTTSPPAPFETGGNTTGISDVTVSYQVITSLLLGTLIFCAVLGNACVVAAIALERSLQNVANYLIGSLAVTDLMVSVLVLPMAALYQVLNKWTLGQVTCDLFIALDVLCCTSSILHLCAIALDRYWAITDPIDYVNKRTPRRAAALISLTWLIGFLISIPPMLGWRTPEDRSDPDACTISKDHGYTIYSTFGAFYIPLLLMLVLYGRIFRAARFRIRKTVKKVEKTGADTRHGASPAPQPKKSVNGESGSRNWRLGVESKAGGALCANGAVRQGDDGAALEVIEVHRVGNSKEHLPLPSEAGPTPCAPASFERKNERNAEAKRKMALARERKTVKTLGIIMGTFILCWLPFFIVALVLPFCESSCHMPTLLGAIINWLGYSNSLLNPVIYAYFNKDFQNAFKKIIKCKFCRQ
human D2 receptor, sequence (P14416 whole entry): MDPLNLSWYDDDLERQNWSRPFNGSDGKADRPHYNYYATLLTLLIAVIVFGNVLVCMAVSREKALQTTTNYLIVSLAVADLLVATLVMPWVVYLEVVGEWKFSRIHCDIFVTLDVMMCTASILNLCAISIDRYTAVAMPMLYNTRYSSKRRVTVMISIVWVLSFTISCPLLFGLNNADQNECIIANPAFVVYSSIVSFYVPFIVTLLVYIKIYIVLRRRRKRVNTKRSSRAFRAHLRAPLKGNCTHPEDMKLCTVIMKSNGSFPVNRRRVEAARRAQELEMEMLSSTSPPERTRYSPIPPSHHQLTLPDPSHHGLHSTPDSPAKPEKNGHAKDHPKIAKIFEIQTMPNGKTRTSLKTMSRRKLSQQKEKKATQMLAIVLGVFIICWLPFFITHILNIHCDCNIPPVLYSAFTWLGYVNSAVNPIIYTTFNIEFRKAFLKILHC
P-gp (MDR1), sequence (P08183 whole entry, species assumed): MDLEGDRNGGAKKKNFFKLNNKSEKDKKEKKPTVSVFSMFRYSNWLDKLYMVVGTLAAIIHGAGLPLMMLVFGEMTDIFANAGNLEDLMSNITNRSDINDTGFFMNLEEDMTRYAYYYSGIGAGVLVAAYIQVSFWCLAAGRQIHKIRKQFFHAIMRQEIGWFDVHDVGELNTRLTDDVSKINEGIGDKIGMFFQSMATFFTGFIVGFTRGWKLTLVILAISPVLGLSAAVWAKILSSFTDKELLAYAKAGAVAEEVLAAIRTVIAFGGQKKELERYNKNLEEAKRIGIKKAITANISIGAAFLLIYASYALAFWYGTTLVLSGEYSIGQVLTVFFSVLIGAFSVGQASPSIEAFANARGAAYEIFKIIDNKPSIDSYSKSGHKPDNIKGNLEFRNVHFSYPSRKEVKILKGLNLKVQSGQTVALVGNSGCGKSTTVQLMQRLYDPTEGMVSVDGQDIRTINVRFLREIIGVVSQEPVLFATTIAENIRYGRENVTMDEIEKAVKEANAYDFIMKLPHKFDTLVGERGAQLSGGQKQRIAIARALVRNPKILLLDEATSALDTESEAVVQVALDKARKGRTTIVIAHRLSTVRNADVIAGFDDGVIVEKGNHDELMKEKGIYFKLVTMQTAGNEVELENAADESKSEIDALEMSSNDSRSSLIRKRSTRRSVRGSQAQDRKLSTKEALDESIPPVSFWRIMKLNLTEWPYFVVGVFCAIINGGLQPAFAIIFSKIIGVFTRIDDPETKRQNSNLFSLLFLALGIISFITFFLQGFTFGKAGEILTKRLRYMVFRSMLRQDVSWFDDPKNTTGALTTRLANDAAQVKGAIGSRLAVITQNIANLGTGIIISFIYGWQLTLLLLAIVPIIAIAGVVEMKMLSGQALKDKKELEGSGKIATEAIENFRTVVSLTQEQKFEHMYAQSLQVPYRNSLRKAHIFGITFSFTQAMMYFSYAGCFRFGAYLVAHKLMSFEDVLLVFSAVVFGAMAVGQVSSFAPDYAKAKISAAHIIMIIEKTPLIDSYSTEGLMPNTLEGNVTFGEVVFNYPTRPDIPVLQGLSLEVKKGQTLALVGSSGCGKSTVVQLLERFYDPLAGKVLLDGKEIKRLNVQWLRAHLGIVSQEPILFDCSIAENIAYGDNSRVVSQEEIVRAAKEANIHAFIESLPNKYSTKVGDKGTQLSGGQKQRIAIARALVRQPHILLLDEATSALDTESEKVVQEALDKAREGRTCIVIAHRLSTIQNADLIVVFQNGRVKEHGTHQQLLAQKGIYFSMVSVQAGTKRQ
hERG channel, sequence (Q12809 whole entry): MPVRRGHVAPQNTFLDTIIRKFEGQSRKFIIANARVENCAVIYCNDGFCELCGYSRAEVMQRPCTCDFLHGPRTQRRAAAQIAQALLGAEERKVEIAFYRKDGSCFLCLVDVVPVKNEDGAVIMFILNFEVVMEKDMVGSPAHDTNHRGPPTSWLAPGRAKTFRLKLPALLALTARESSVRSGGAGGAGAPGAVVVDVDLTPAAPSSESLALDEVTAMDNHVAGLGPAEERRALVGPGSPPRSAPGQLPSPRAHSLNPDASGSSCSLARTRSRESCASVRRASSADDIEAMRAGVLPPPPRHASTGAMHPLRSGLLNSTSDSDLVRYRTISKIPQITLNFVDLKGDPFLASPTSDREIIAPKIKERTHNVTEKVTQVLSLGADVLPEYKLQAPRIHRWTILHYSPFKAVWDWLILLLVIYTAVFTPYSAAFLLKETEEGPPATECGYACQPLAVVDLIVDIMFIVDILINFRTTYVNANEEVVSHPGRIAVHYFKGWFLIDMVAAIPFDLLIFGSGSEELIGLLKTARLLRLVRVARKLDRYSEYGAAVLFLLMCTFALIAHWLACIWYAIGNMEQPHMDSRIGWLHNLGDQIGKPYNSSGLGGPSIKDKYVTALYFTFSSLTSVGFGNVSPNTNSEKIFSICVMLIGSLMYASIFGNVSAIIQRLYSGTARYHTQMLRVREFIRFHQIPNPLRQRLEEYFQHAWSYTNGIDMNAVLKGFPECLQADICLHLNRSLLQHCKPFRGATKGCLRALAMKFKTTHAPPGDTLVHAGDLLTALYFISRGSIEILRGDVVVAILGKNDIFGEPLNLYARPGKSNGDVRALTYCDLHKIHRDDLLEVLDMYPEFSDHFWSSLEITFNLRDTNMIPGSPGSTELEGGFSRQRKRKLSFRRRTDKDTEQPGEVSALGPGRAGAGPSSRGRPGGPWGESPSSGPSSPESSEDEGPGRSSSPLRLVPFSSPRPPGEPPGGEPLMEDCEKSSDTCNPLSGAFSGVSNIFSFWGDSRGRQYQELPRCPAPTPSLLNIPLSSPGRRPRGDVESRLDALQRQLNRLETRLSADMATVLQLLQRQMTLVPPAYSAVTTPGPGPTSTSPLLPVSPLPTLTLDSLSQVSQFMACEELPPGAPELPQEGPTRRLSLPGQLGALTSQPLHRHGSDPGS
human 5-HT2A receptor, sequence (P28223 whole entry): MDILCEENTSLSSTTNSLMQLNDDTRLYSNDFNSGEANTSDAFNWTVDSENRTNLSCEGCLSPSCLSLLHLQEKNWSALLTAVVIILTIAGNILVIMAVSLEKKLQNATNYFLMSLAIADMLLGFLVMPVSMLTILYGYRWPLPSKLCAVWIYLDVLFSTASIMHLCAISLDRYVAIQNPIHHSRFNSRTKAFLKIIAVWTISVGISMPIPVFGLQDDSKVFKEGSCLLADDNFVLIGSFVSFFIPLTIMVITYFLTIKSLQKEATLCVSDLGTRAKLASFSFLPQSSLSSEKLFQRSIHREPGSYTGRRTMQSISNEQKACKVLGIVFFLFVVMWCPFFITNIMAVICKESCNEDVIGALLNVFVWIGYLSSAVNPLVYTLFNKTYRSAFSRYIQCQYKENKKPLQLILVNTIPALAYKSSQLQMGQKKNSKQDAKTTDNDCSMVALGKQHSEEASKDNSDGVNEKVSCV

Compound: O=C1c2cnccc2CCN1CCN1CCC(c2noc3ccccc23)CC1 [Example 13]
- Emax at 10 µM [1, 8]: 56%
- Metabolic stability in human hepatic microsome [2]: <0.01 mL/min/mg protein
- Ki [3]: 8.4 nM

Compound: COc1cc2c(cn1)C(=O)N(CCN1CCC(c3noc4ccccc34)CC1)CC2 [Example 20]
- 5-HT1A agonist activity Emax [1, 8]: 52%
- Ki [4]: 1890 nM
- Metabolic stability in human hepatic microsome [2]: 0.091 mL/min/mg protein
- Ki [5]: 0.77 nM

Compound: Cc1cc2c(cn1)C(=O)N(CCN1CCC(c3noc4ccccc34)CC1)CC21CC1 [Example 21]
- Emax at 10 µM [1, 8]: 59%
- IC50 ([6]; human, CHO cells expressing hERG channel): 8000 nM
- Ki [4]: 2120 nM
- Metabolic stability in human hepatic microsome [2]: 0.323 mL/min/mg protein
- Ki [5]: 8.62 nM

Compound: Cn1cnc2c1CCN(CCN1CCN(c3nsc4ccccc34)CC1)C2=O [Example 54]
- Metabolic stability in human hepatic microsome [2]: <0.01 mL/min/mg protein
- NFR (Net Flux Ratio) [7]: 6.6

Compound: Cn1ncc2c1C(=O)N(CCN1CCN(c3nsc4ccccc34)CC1)CC2 [Example 59]
- D2 Ki/5-HT1A Ki [4]: 63
- NFR (Net Flux Ratio) [7]: 1.1

Compound: Cn1ccc2c1CCN(CCN1CCC(c3noc4ccccc34)CC1)C2=O [Example 60]
- D2 Ki/5-HT1A Ki [4]: 19
- Metabolic stability in human hepatic microsome [2]: 0.018 mL/min/mg protein
- NFR (Net Flux Ratio) [7]: 1.5

Compound: Cn1nc(Br)c2c1CCN(CCN1CCN(c3nsc4ccccc34)CC1)C2=O [Example 69]
- Emax at 10 µM [1, 8]: 45%
- Ki [4]: 360 nM
- Ki [5]: 10.4 nM

Compound: Cn1ncc2c1C(=O)N(CCN1CCC(c3noc4ccccc34)CC1)CC2 [Example 96, 6-{2-[4-(1,2-Benzoisoxazol-3-yl)piperidin-1-yl]ethyl}-1-methyl-1,4,5,6-tetrahydro-7H-pyrazolo[3,4-c]pyridin-7-one]
- D2 Ki/5-HT1A Ki [4]: 9
- D2 Ki/5-HT2A Ki [4]: 14
- Metabolic stability in human hepatic microsome [2]: 0.019 mL/min/mg protein

Compound: Cn1cnc2c1CCCN(CCN1CCC(c3noc4ccccc34)CC1)C2=O [Example 101, 5-{2-[4-(1,2-Benzoisoxazol-3-yl)piperidin-1-yl]ethyl}-1-methyl-5,6,7,8-tetrahydroimidazo[4,5-c]azepin-4(1H)-one]
- D2 Ki/5-HT1A Ki [4]: 17

Compound: O=C1c2cnc(OC3COC3)cc2CCN1CCN1CCN(c2nsc3ccccc23)CC1 [Example 111, 2-{2-[4-(1,2-Benzoisothiazol-3-yl)piperazin-1-yl]ethyl}-6-[(oxetan-3-yl)oxy]-3,4-dihydro-2,7-naphthyridin-1(2H)-one]
- D2 Ki/5-HT2A Ki [4]: 530

Compound: Cc1cncc2c1CCN(CCN1CCN(c3noc4ccccc34)CC1)C2=O [Example 137]
- D2 Ki/5-HT1A Ki [4]: 5.8
- Metabolic stability in human hepatic microsome [2]: <0.05 mL/min/mg protein

Compound: COc1ccc2onc(C3CCN(CCN4CCc5cccnc5C4=O)CC3)c2c1 [Example 142]
- D2 Ki/5-HT2A Ki [4]: >61.0

Compound: O=C1c2nc(Cl)ccc2CCN1CCN1CCC(c2noc3ccccc23)CC1 [Example 146]
- Metabolic stability in human hepatic microsome [2]: <0.05 mL/min/mg protein
- NFR (Net Flux Ratio) [7]: 2.3

Compound: CCc1ccc2c(n1)C(=O)N(CCN1CCC(c3noc4ccccc34)CC1)CC2 [Example 185]
- Metabolic stability in human hepatic microsome [2]: <0.05 mL/min/mg protein
- NFR (Net Flux Ratio) [7]: 2.4

Compound: COc1ccc2c(n1)C(=O)N(CCN1CCN(c3noc4ccccc34)CC1)CC2 [Example 186]
- EC50 ([1]; [35S]GTPγS binding, CHO cell membrane fraction expressing human 5-HT1A receptor): 97 nM
- Emax at 10 µM [1, 8]: 39%
- IC50 [6]: 2000 nM
- Ki [4]: 1280 nM
- Metabolic stability in human hepatic microsome [2]: 0.095 mL/min/mg protein
- Ki [5]: 16.5 nM

Compound: O=C1c2cn[nH]c2CCN1CCN1CCC(c2noc3ccccc23)CC1 [Example 189, 5-{2-[4-(1,2-Benzoisoxazol-3-yl)piperidin-1-yl]ethyl}-1,5,6,7-tetrahydro-4H-pyrazolo[4,3-c]pyridin-4-one]
- Metabolic stability in human hepatic microsome [2]: <0.05 mL/min/mg protein

Compound: O=C1c2ncoc2CCN1CCN1CCC(c2noc3ccccc23)CC1 [Example 190, 5-{2-[4-(1,2-Benzoisoxazol-3-yl)piperidin-1-yl]ethyl}-6,7-dihydro[1,3]oxazolo[4,5-c]pyridin-4(5H)-one]
- Metabolic stability in human hepatic microsome [2]: <0.05 mL/min/mg protein

Compound: O=C1c2nc[nH]c2CCN1CCN1CCC(c2noc3ccccc23)CC1 [Example 191, 5-{2-[4-(1,2-Benzoisoxazol-3-yl)piperidin-1-yl]ethyl}-6,7-dihydro[1,3]imidazolo[4,5-c]pyridin-4(5H)-one]
- Metabolic stability in human hepatic microsome [2]: <0.05 mL/min/mg protein

Compound: O=C1c2c(Br)n[nH]c2CCN1CCN1CCC(c2noc3ccccc23)CC1 [Example 192, 5-{2-[4-(1,2-Benzoisoxazol-3-yl)piperidin-1-yl]ethyl}-3-bromo-1,5,6,7-tetrahydro-4H-pyrazolo[4,3-c]pyridin-4-one]
- Metabolic stability in human hepatic microsome [2]: <0.05 mL/min/mg protein

Compound: Cc1ncc2c(=O)n(CCN3CCC(c4noc5ccccc45)CC3)ccc2n1 [Example 194, 6-{2-[4-(1,2-Benzoisoxazol-3-yl)piperidin-1-yl]ethyl}-2-methylpyrido[4,3-d]pyrimidin-5(6H)-one]
- Metabolic stability in human hepatic microsome [2]: <0.05 mL/min/mg protein

— patent publication US11466007B2, “Substituted lactams showing serotonin 5-HT receptor activity” (Sumitomo Pharma Co., Ltd., priority 2018, dated 2022)
